13 compounds from patent publication US8829007B2 (priority 2009, dated 2014) can be followed below.

The structures appear in SMILES notation. Read-outs that look alike come from different tables or passages of the source. Where only a bound is given, the exact number is not on record here.

This test concerns influenza A virus (A/PR/8/34). The experiment in a line: microbe, parasite or virus in culture. The class given is cell-based.
[1] abbreviates: Influenza A virus, PR/8, MDCK, mean all, A/PR/8/34 infected MDCK cells, CPE assay, read-out: IC50.
[2] abbreviates: Influenza A virus, PR/8, MDCK, MDCK cells infected with A/PR/8/34, cell protection (CPE), read-out: IC50 (mean all).
Setting [3] is: Influenza A virus, PR/8, MDCK, read-out: IC50 (mean all).

As for `O=C(N[C@@H]1CCCC[C@@H]1Nc1nc(-c2c[nH]c3ncccc23)ncc1F)C1CCCC1` (relative stereo) [Compound 343, N-[cis-2-[[5-fluoro-2-(1H-pyrrolo[2,3-b]pyridin-3-yl)pyrimidin-4-yl]amino]cyclohexyl]cyclopentanecarboxamide], the IC50 – broadly, the concentration needed to halve the response being measured – under setting [1] is > 20 µM. Regarding `O=C(c1ccccc1)N1CCCC[C@H]1CNc1nc(-c2c[nH]c3ncccc23)ncc1F` [Compound 259, (S)-(2-((5-fluoro-2-(1H-pyrrolo[2,3-b]pyridin-3-yl)pyrimidin-4-ylamino)methyl)piperidin-1-yl)(phenyl)methanone], the IC50 under setting [2] was 5 to 20 µM. With `COC(=O)c1ccc(OC(=O)N2CCC[C@H](CNc3nc(-c4c[nH]c5ncc(Cl)cc45)ncc3F)C2)cc1` [Compound 63, (R)-4-(methoxycarbonyl)phenyl 3-((2-(5-chloro-1H-pyrrolo[2,3-b]pyridin-3-yl)-5-fluoropyrimidin-4-ylamino)methyl)piperidine-1-carboxylate], the IC50 under setting [3] was > 20 µM. With `Fc1cnc(-c2c[nH]c3ncc(Cl)cc23)nc1NCC1CN(Cc2ccccc2)CCO1` (stereo not shown) [Compound 388, N-((4-benzylmorpholin-2-yl)methyl)-2-(5-chloro-1H-pyrrolo[2,3-b]pyridin-3-yl)-5-fluoropyrimidin-4-amine], under setting [1], the IC50 was > 20 µM. Turning to `NC1CCCCC1Nc1nc(-c2c[nH]c3ncccc23)ncc1F` (stereo not shown) [Compound 4, N1-(5-fluoro-2-(1H-pyrrolo[2,3-b]pyridin-3-yl)pyrimidin-4-yl)cyclohexane-1,2-diamine], the IC50 (MDCK cells infected with A/PR/8/34, cell protection (CPE), read-out: IC50 (mean all)) was > 20 µM.

For `CCCS(=O)(=O)N[C@@H]1CCCC[C@@H]1Nc1nc(-c2c[nH]c3ncc(Cl)cc23)ncc1F` (relative stereo) [Compound 338, N-[cis-2-[[2-(5-chloro-1H-pyrrolo[2,3-b]pyridin-3-yl)-5-fluoro-pyrimidin-4-yl]amino]cyclohexyl]propane-1-sulfonamide], the IC50 under setting [1] was > 20 µM. Turning to `COc1cccc(C(=O)N2CCCC[C@H]2CNc2nc(-c3c[nH]c4ncc(Cl)cc34)ncc2F)c1` [Compound 174, (S)-(2-((2-(5-chloro-1H-pyrrolo[2,3-b]pyridin-3-yl)-5-fluoropyrimidin-4-ylamino)methyl)piperidin-1-yl)(3-methoxyphenyl)methanone], under setting [2], the IC50 was > 20 µM.

Consider `CCCC(=O)N1CCC[C@H](CNc2nc(-c3c[nH]c4ncccc34)ncc2F)C1` [Compound 270, (R)-1-(3-((5-fluoro-2-(1H-pyrrolo[2,3-b]pyridin-3-yl)pyrimidin-4-ylamino)methyl)piperidin-1-yl)butan-1-one], for which, under setting [2], the IC50 was 5 to 20 µM. Consider `CCCC(=O)N1CCCC[C@H]1CNc1nc(-c2c[nH]c3ncccc23)ncc1F` [Compound 258, (S)-1-(2-((5-fluoro-2-(1H-pyrrolo[2,3-b]pyridin-3-yl)pyrimidin-4-ylamino)methyl)piperidin-1-yl)butan-1-one], for which the IC50 under setting [2] is 5 to 20 µM. For the compound `CN1CCC(Nc2nc(-c3c[nH]c4ncccc34)ncc2F)C1=O` (stereo not shown) [Compound 376], the IC50 (mean all, A/PR/8/34 infected MDCK cells, CPE assay, read-out: IC50) lay within 5 to 20 µM. In the case of `CCC(=O)N1CCCC(CNc2nc(-c3c[nH]c4ncccc34)ncc2F)C1` (stereo not shown) [Compound 269], under setting [3], the IC50 lay in the range of 5 to 20 µM. As to `O=C(Nc1cccc(C(F)(F)F)c1)N1CCC[C@H](CNc2nc(-c3c[nH]c4ncc(Cl)cc34)ncc2F)C1` [Compound 79, (R)-3-((2-(5-chloro-1H-pyrrolo[2,3-b]pyridin-3-yl)-5-fluoropyrimidin-4-ylamino)methyl)-N-(3-(trifluoromethyl)phenyl)piperidine-1-carboxamide], the IC50 under setting [2] lay in the range of 5 to 20 µM. As for `CCS(=O)(=O)N1CC[C@H](Nc2nc(-c3c[nH]c4ncc(Cl)cc34)ncc2F)C1` [Compound 399, (S)-2-(5-chloro-1H-pyrrolo[2,3-b]pyridin-3-yl)-N-(1-(ethylsulfonyl)pyrrolidin-3-yl)-5-fluoropyrimidin-4-amine], under setting [1], the half-inhibitory concentration (IC50) was < 5 µM.
